Experiments:
[1] = target: T1, Type-2 angiotensin II receptor (Homo sapiens, UniProt P50052); assay type: cell-based; conditions: cho-k1; note: in other assays of this panel Not Active means under 50% inhibition at 10 µM
T1 sequence (P50052 whole entry): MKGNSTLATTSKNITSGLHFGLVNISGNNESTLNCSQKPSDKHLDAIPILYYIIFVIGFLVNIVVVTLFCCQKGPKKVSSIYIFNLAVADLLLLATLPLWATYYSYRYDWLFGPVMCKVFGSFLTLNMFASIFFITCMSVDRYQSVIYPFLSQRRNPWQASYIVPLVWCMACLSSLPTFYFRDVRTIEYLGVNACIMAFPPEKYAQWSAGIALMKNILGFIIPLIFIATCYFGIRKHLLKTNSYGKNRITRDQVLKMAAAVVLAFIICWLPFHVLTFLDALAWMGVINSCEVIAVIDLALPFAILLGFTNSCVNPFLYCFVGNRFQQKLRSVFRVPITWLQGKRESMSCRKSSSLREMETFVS

Melanocortin receptor 4 = Melanocortin receptor 4 (Homo sapiens, UniProt P32245); assay type: cell membranes, HEK293, Membrane; conditions: hek293; note: in other assays of this panel Not Active means under 50% inhibition at 10 µM
Melanocortin receptor 4, sequence (P32245 whole entry): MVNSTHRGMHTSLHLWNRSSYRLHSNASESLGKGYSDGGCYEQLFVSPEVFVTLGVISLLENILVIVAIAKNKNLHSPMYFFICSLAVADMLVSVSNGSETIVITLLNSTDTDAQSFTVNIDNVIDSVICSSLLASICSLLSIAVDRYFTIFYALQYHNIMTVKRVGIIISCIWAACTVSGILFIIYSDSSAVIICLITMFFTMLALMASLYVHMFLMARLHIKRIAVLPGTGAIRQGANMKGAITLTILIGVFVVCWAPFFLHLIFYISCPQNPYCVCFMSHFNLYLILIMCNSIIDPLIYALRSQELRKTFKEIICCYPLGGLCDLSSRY

[2] = target: Tyrosine-protein kinase Lck (Homo sapiens, UniProt P06239); assay: DRUGMATRIX: Protein Tyrosine Kinase, LCK enzyme inhibition (substrate: Poly(Glu:Tyr)); assay type: cell-based, Insect cells; conditions: insect cells; Not Active = under 50% inhibition at 10 µM
Tyrosine-protein kinase Lck, sequence (P06239 whole entry): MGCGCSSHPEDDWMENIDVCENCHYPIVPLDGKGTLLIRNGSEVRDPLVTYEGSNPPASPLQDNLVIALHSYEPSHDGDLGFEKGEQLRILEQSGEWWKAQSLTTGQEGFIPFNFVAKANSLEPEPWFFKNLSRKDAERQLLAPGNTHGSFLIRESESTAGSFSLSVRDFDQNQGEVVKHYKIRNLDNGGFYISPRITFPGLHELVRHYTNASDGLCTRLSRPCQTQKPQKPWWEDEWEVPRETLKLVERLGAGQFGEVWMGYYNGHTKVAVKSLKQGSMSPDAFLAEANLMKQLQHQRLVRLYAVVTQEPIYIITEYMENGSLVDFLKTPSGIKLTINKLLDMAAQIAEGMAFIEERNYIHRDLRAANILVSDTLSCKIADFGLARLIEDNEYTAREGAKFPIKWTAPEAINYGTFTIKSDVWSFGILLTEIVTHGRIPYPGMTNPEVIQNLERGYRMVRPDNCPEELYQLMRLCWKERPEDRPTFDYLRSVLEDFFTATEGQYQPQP

Cytochrome P450 1A2 = target: T2, Cytochrome P450 1A2 (Homo sapiens, UniProt P05177); conditions: bti-tn-5b1-4; note: in other assays of this panel Not Active means under 50% inhibition at 10 µM
T2 sequence (P05177 whole entry): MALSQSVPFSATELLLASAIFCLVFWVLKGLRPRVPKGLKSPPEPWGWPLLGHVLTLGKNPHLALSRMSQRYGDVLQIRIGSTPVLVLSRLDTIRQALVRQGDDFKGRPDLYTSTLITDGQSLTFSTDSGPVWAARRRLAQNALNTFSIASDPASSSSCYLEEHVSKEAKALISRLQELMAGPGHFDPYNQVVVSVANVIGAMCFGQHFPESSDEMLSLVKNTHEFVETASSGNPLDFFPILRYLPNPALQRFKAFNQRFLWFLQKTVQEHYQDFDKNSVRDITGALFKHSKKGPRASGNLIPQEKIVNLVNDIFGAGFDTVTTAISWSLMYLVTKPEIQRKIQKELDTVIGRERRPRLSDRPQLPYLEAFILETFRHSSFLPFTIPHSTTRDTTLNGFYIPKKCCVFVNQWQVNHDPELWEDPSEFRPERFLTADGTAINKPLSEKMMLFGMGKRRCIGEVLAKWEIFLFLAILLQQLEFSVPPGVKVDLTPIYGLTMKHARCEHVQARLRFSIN

[3] = target: Protein kinase C alpha type (Homo sapiens, UniProt P17252); assay type: cell-based; conditions: sf9;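 note: inhibition of PKCalpha kinase activity measured in an enzyme assay with histone as the phosphorylation substrate; in other assays of this panel Not Active means under 50% inhibition at 10 µM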
[4] = DRUGMATRIX: Serotonin (5-Hydroxytryptamine) 5-HT3 radioligand binding (ligand: [3H] GR-65630); assay type: cell membranes, Membrane; conditions: hek293; Not Active = under 50% inhibition at 10 µM
[5] = target: Sigma non-opioid intracellular receptor 1 (Homo sapiens, UniProt Q99720); assay: DRUGMATRIX: Sigma1 radioligand binding (ligand: [3H] Haloperidol); assay type: cell membranes, Jurkat, Membrane; conditions: jurkat; Not Active = under 50% inhibition at 10 µM
Sigma non-opioid intracellular receptor 1, sequence (Q99720 whole entry): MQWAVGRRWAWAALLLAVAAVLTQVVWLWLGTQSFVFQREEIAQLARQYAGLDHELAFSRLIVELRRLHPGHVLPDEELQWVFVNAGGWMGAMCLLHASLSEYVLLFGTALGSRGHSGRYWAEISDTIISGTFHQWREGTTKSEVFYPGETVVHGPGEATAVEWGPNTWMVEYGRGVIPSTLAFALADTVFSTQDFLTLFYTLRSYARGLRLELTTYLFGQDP

Cc1nnc2n1-c1ccc(Cl)cc1C(c1ccccc1)=NC2 [ALPRAZOLAM]
Not Active: IC50 [1] | IC50 (Melanocortin receptor 4) | IC50 [2] | IC50 (Cytochrome P450 1A2) | Ki (Cytochrome P450 1A2) | Ki [3] | IC50 [4] | Ki [4] | IC50 [5]

Cn1c(=O)c2[nH]cnc2n(C)c1=O.Cn1c(=O)c2[nH]cnc2n(C)c1=O.NCCN [AMINOPHYLLINE]
Not Active: IC50 [1] | IC50 (Melanocortin receptor 4) | IC50 [2] | IC50 (Cytochrome P450 1A2) | Ki (Cytochrome P450 1A2) | IC50 [3] | IC50 [4] | Ki [4] | IC50 [5]

CCC1(CCC(C)C)C(=O)NC(=O)NC1=O [AMOBARBITAL]
Not Active: IC50 [1] | IC50 (Melanocortin receptor 4) | IC50 [2] | IC50 (Cytochrome P450 1A2) | Ki (Cytochrome P450 1A2) | IC50 [3] | IC50 [4] | Ki [4] | IC50 [5]

CC1(C)S[C@@H]2[C@H](NC(=O)[C@H](N)c3ccccc3)C(=O)N2[C@H]1C(=O)O [AMPICILLIN]
Not Active: IC50 [1] | IC50 (Melanocortin receptor 4) | IC50 [2] | IC50 (Cytochrome P450 1A2) | Ki (Cytochrome P450 1A2) | IC50 [3] | IC50 [4] | Ki [4] | IC50 [5]

COc1ccc(C2C(=O)c3ccccc3C2=O)cc1 [ANISINDIONE]
Not Active: IC50 [1] | IC50 (Melanocortin receptor 4) | IC50 [2] | IC50 (Cytochrome P450 1A2) | Ki (Cytochrome P450 1A2) | IC50 [3] | IC50 [4] | Ki [4] | IC50 [5]

O=C1O[C@H]([C@@H](O)CO)C(O)=C1O [ASCORBIC ACID]
Not Active: IC50 [1] | IC50 (Melanocortin receptor 4) | IC50 [2] | IC50 (Cytochrome P450 1A2) | Ki (Cytochrome P450 1A2) | IC50 [3] | IC50 [4] | Ki [4] | IC50 [5]

CC(C(=O)O)c1ccc2oc(-c3ccc(Cl)cc3)nc2c1 (stereo unspecified) [BENOXAPROFEN]
Not Active: IC50 [1] | IC50 (Melanocortin receptor 4) | IC50 [2] | IC50 (Cytochrome P450 1A2) | Ki (Cytochrome P450 1A2) | IC50 [3] | IC50 [4] | Ki [4] | IC50 [5]

O=C(O)CCNC(=O)c1ccccc1 [BETAMIPRON]
Not Active: IC50 [1] | IC50 (Melanocortin receptor 4) | IC50 [2] | IC50 (Cytochrome P450 1A2) | Ki (Cytochrome P450 1A2) | IC50 [3] | IC50 [4] | Ki [4] | IC50 [5]

CC(=O)Oc1ccc(C(c2ccc(OC(C)=O)cc2)c2ccccn2)cc1 [BISACODYL]
Not Active: IC50 [1] | IC50 (Melanocortin receptor 4) | IC50 [2] | IC50 (Cytochrome P450 1A2) | Ki (Cytochrome P450 1A2) | IC50 [3] | IC50 [4] | Ki [4] | IC50 [5]
